Test results as given in article PMC4071596, “Eurothiocin A and B, Sulfur-Containing Benzofurans from a Soft Coral-Derived Fungus Eurotium rubrum SH-823” (Marine Drugs, 2014).

Columns and labels:
α-glucosidase = α-glucosidase (Saccharomyces cerevisiae, UniProt P53341); assay: α-Glucosidase inhibitory activity assay (p-nitrophenyl-α-glucopyranoside hydrolysis, absorbance at 400 nm); format: biochemical; conditions: for type of inhibition of α-glucosidase (Lineweaver-Burk plot method): kinetic studies at increasing concentration of substrates and inhibitors
Protocol: α-Glucosidase was assayed according to standard procedures by following the hydrolysis of nitrophenyl glycosides by monitoring formation of p-nitrophenol spectrometrically at 400 nm. The reaction mixture (final volume, 1 mL) consisted of the enzyme solution (20 μL, Sigma 9001-42-7, E.C 3.2.1.20), substrate (10 mM p-nitrophenyl-α-glucopyranoside, 20 μL, Fluka, BioChemika, Buchs, Switzerland) in 50 mM potassium phosphate buffer (pH 7.0) and test sample dissolved in DMSO (20 μL). The inhibitors were pre-incubated with the enzyme at 37 °C for 30 min, and the substrate was then added. The reaction was monitored spectrophotometrically by measuring the absorbance at 400 nm. […] The inhibitory activity of test compound was determined as a percentage in comparison to a blank according with the following equation: The inhibition rates (%) = [(ODcontrol − ODcontrol blank) − (ODtest − ODtest blank)]/(ODcontrol − ODcontrol blank) × 100%. The IC50 values of compounds were calculated by the nonlinear regression analysis and expressed as the mean ± SD of two distinct experiments. Kinetic parameters were determined using the Lineweaver-Burk double-reciprocal plot method at increasing concentration of substrates and inhibitors.

Chain of α-glucosidase (P53341 whole entry): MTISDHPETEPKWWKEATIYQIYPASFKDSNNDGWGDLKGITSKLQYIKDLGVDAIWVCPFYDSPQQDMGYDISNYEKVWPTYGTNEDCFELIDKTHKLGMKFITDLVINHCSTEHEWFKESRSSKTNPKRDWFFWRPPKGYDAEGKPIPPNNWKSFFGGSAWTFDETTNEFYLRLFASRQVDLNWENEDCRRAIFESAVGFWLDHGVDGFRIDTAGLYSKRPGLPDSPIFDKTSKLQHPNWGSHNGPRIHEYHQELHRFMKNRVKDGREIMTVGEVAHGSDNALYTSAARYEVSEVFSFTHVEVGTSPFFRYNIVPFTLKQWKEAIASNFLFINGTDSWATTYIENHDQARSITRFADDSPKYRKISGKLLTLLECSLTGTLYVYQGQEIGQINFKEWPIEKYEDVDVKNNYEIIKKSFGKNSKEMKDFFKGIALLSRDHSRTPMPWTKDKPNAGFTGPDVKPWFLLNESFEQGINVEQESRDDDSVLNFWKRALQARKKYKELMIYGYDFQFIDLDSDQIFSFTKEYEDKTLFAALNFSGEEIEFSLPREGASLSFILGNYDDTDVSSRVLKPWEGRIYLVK

type of inhibition of α-glucosidase (Lineweaver-Burk plot method) (α-glucosidase)	melting point	Compound	IC50 (α-glucosidase; mean ± SD from two independent experiments, pre-incubated with the enzyme at 37 °C for 30 min, pH 7.0)
competitive inhibitors	–	CSC(=O)c1c(C)cc2c(c1O)CC(C(C)(C)O)O2 (stereo not shown) [Compound 1, eurothiocin A]	–
competitive inhibitors	122 to 123 °C	CSC(=O)c1c(C)cc2c(c1O)CC(C(C)(O)CO)O2 (stereo not shown) [Compound 2, eurothiocin B]	–
–	–	butyrolactone I [Compound 4]	98.5 ± 3.3 µM
